From patent US10806794B2, “Protease inhibitors having enhanced features” (priority 2008, dated 2020)
Where two headings read alike, the source gives them in different places.

Legend:
[1] = Plasma protein binding by equilibrium dialysis, human plasma; type: in vitro ADME; details: human plasma, 5 μM, fraction unbound; read-out: Plasma Protein Binding Fu ± SD
Summary of the method: (§1)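 5 μM cpd in plasma vs buffer, 0.5% DMSO; equilibrium dialysis 2 h, 37 °C; both chambers by LC-MS/MS.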

[2] = Metabolic stability in rat liver microsomes; type: in vitro ADME
Excerpt: Metabolic stability of test compounds was studied in rat liver microsomes.

in vitro [3] = type: in vitro ADME; details: dog, microsomes
Excerpt: Metabolic stability of test compounds was studied in dog liver microsomes.

hERG = hERG (Homo sapiens (Human), UniProt Q12809); assay: hERG current (IKr) in HEK-293 cells, whole-cell patch clamp; type: cell-based; details: for IC50: hERG current in HEK-293 cells, whole-cell patch clamp, read-out: IC50 (Block of hERG at 0.1 Hz); for IC50 / inhibition at 10 µM / inhibition at 30 µM / inhibition at 100 µM: 0.1 Hz; for inhibition at 10 µM / inhibition at 30 µM / inhibition at 100 µM: human, HEK-293 cells stably expressing hERG, read-out: Mean % inhibition ± SEM (Block of hERG at 0.1 Hz); for inhibition at 10 µM / inhibition at 30 µM / inhibition at 100 µM / Mean % inhibition ± SEM (Block of hERG at 0.1 Hz): HEK-293 cells
Experimental: Currents were measured using the whole-cell variant of the patch clamp method. Glass pipettes were produced with tip openings of […] for K current recordings. Pipette tip resistance was approximately 1.0 to 2.0 MΩ when filled with K internal solutions (130 mM KCl, 5 mM MgCl2, 10 mM HEPES, 5 mM EGTA, 5 mM ATP-Na2, pH7.2). An Axopatch 1-B amplifier (Axon Instruments, Foster City, Calif.) was used for whole-cell voltage clamping. Voltage clamp pulses were controlled by pClamp software (ver 9.2, Axon Instruments).
After rupture of the cell membrane, current kinetics and amplitudes were allowed to stabilize as the cell was dialyzed with internal solution and paced at 0.1 Hz (−75 mV; 500 msec, +10 mV; 500 msec, −40 mV; typically 2-4 minutes). Currents were considered stable if the currents elicited by a series of voltage pulses given at 0.1 Hz were superimposed. Peak hERG current was measured as the maximum outward deflection of the tail current elicited upon return to −40 mV.
Data are presented in Table 19 as the percent reduction of current amplitude. This was measured as current reduction after a steady-state effect had been reached in the presence of drug relative to current amplitude before drug was introduced (control). Each cell served as its own control.

in vitro [4] = type: in vitro ADME; details: monkey, microsomes
Excerpt: Metabolic stability of test compounds was studied in monkey liver microsomes.

in vitro [5] = details: human
Experimental: Absorption properties of various compounds were measured using bi-directional permeability assays in Caco-2 cells. […] The efflux ratio is calculated as the ratio of the Papp(B→A)/Papp(A→B).

CEM-SS cells = assay: CEM-SS cytotoxicity (XTT); details: 7 days
Experimental: One day prior to assay initiation, cells were split 1:2 to assure exponential growth at the time of the assay. Cells were counted using a hemocytometer, and viability measured by Trypan Blue dye exclusion. […] CEM-SS cells were resuspended at 5×10^4 cells/mL in medium, and 100 μL of the cell suspension was aliquoted to individual wells of a 96-well microtiter plate containing 100 μL 2× concentration test compound. Plates were incubated for 7 days at 37° C., 5% CO2 until cytotoxicity evaluation.
Test compound-induced cytotoxicity was evaluated by monitoring the reduction of the tetrazolium dye XTT to a soluble formazan product in microtiter plates containing compound-treated cells in the absence of HIV-1 virus. XTT solution was prepared at 0.15 mg/mL in phosphate buffered saline. Phenazine methosulfate (PMS) solution was prepared at 0.15 mg/mL in phosphate buffered saline. A XTT/PMS stock solution was prepared immediately before use by combining 40 uL of PMS per mL of XTT solution. Fifty microliters of the XTT/PMS stock was added to each well of the microtiter plate, the plate was incubated for four hours at 37° C., and the amount of soluble formazan product was measured as the absorbance at 450 nm. Cell viability is directly proportional to the amount of soluble formazan product formed.

human plasma proteins = assay: Plasma protein binding by equilibrium dialysis, human plasma; type: in vitro ADME; details: human plasma, 5 μM, fraction unbound
Summary of the method: as §1

[6] = tested on: Sprague-Dawley rat hepatocytes; assay: Metabolic stability in Sprague-Dawley rat hepatocytes; type: in vitro ADME; details: 0.1 uM
PBMCs = assay: Toxicity in PBMCs cultured without virus (XTT)
Experimental: Fresh human peripheral blood mononuclear cells (PBMCs) obtained from a commercial source were purified following centrifugation using a Ficoll-Hypaque density gradient. Viable cells were induced to proliferate in the presence of PHA-P and recombinant human IL-2 for 72 hours. […] Cell supernatant containing HIV-1 viral was incubated for 90 minutes at 37° C. with a reaction mixture containing EGTA, Triton X-100, Tris (pH 7.4), DTT, MgCl2, poly rA, oligo dT, and tritiated thymidine triphosphate (TTP). Incorporation of TTP into DNA was monitored by spotting the reaction mixture onto a DEAE filter mat, followed by washes with 5% phosphate buffer, distilled water, and 70% ethanol, and subsequent drying of the mat. […] TI was calculated as TC50/EC50.

beagle dog hepatocytes = assay: Metabolic stability in beagle dog hepatocytes; type: in vitro ADME; details: 0.1 uM
human hepatocytes = assay: Metabolic stability in cryopreserved human hepatocytes; details: human hepatocytes
Summary of the method: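 Test compounds at 0.1 μM or 3 μM incubated with cryopreserved human hepatocytes at 0.5×10^6 viable cells/mL. Sampling up to four hours (0.1 μM) or one or two hours (3 μM), methanol quench, then remaining parent measured by cassette LC-MS/MS.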

monkey plasma proteins = assay: Plasma protein binding by equilibrium dialysis, monkey plasma; type: in vitro ADME; details: fraction unbound
Experimental: (§2) In assays to estimate binding of test compounds to plasma proteins, test compound solutions (5 μM) are prepared in buffer and species-specific plasma (final DMSO concentration 0.5%). The plasma-containing solution is added to one side of the membrane of an equilibrium dialysis system, and the plasma-free is added to the other side. Dialysis was allowed to reach equilibrium by incubation for two hours at 37° C. The concentration of compound on both sides of the membrane was measured using LC-MS/MS.

mouse plasma proteins = assay: Plasma protein binding by equilibrium dialysis, mouse plasma; type: in vitro ADME; details: fraction unbound
Experimental: as §2

rat plasma proteins = assay: Plasma protein binding by equilibrium dialysis, rat plasma; type: in vitro ADME; details: fraction unbound
Experimental: as §2

[7] = seven days, absence of virus, XTT

hERG, sequence (Q12809 whole entry): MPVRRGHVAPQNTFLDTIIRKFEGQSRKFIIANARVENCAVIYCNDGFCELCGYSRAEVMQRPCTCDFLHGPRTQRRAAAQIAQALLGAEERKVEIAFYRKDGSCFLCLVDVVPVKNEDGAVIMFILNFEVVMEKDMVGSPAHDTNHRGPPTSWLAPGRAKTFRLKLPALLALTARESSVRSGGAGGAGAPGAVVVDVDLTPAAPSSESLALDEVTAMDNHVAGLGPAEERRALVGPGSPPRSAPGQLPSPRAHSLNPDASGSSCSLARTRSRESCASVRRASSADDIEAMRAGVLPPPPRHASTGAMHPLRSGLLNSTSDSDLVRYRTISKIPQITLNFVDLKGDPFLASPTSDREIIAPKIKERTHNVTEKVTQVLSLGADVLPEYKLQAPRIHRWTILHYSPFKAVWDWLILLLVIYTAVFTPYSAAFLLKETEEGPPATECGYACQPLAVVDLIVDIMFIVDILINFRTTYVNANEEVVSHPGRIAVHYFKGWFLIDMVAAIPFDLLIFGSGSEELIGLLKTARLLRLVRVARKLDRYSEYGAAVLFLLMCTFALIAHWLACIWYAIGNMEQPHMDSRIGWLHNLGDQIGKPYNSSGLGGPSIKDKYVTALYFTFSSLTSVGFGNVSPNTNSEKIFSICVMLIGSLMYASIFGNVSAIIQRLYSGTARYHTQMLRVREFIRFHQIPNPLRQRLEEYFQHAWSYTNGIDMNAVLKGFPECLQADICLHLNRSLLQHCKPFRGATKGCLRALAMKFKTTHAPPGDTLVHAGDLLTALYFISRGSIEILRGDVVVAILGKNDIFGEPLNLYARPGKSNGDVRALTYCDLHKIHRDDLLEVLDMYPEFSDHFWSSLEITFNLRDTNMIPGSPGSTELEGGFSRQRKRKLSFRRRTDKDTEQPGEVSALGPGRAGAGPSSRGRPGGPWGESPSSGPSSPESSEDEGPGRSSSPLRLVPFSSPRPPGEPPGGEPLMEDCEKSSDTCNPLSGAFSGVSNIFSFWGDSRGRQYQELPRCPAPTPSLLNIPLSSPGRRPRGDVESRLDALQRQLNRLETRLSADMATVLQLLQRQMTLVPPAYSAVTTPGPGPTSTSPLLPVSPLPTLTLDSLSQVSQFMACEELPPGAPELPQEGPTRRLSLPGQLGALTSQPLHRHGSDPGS

Structure (SMILES) | fraction unbound at 2 h, 5 μM [1] | IC50 (hERG) [µM] | XTT (CEM-SS) TC50 (CEM-SS cells) [µM] | Plasma Protein Binding Fu ± SD (human plasma proteins) | CLint ± SEM [6] [μL/min/10^6 cells] | t1/2 [6] [min] | PBMC TC50 ± SD (PBMCs; [7]) [µM] | CLint ± SEM (beagle dog hepatocytes) [μL/min/10^6 cells] | t1/2 (beagle dog hepatocytes) [min] | CLint ± SEM (human hepatocytes; 0.1 uM, up to four hours) [μL/min/10^6 cells] | t1/2 (human hepatocytes; 0.1 uM, up to four hours) [min] | Monkey Plasma Protein Binding Fu ± SD (monkey plasma proteins) | Mouse Plasma Protein Binding Fu ± SD (mouse plasma proteins) | Rat Plasma Protein Binding Fu ± SD (rat plasma proteins) | further results
COC(=O)N[C@H](C(=O)N[C@@H](Cc1ccccc1)[C@@H](O)CN(Cc1ccc(-c2ccccn2)cc1)NC(=O)[C@@H](NC(=O)OC)C(C)(C)C)C(C)(C)C [Atazanavir, reference compound] | 0.106 ± 5.25e-05 | 63.9 | 302.1 |  |  |  |  |  |  |  |  |  |  |  | half-life [2]: 24.2 min; half-life (in vitro [3]): 51.8 min; microsomal CLint (in vitro [3]): 26.8 µL/min/mg; inhibition at 10 µM (hERG; 10 μM): 15.6 ± 1.9%; inhibition at 30 µM (hERG; 30 μM): 32.5 ± 3.7%; inhibition at 100 µM (hERG; 100 μM): 60.5 ± 2.5%; half-life (in vitro [4]): 24.2 min; microsomal CLint (in vitro [4]): 42.9 µL/min/mg; Papp A→B (in vitro [5]; Caco-2, A→B, ×10^−6): 2.05 ×10⁻⁶ cm/s
CC(C)CN(C[C@@H](O)[C@H](Cc1ccccc1)NC(=O)O[C@H]1CO[C@H]2OCC[C@H]21)S(=O)(=O)c1ccc(N)cc1 [Darunavir, reference compound] | 0.144 ± 0.0051 |  | 338.6 |  |  |  |  |  |  |  |  |  |  |  | Papp A→B (in vitro [5]; Caco-2): 2.55 ×10⁻⁶ cm/s
COCCOCCOCCOc1ccc(C[C@H](NC(=O)O[C@H]2CO[C@H]3OCC[C@H]32)C(O)CN(CC(C)C)S(=O)(=O)c2ccc(N)cc2)cc1 (some centres unmarked) [mPEG3-O-Darunavir] |  |  | >400 | 0.274 ± 0.0194 | 28.4 ± 0.00359 | 48.8 | >200 | 15.5 ± 0.000361 | 89.5 |  |  |  |  |  | 
COCCOCCOCCOCCOCCNc1ccc(S(=O)(=O)N(CC(C)C)CC(O)[C@H](Cc2ccccc2)NC(=O)O[C@H]2CO[C@H]3OCC[C@H]32)cc1 (some centres unmarked) [mPEG5-N-Darunavir] |  |  |  | 0.338 ± 0.0368 |  |  |  |  |  | 3.94 ± 0.386 | 352 |  |  |  | CLint ± SEM (human hepatocytes; 3 uM, incubated up to one hour): 11.9 ± 1.40 μL/min/10^6 cells
COCCOCCOCCOCCOCCOc1ccc(C[C@H](NC(=O)O[C@H]2CO[C@H]3OCC[C@H]32)C(O)CN(CC(C)C)S(=O)(=O)c2ccc(N)cc2)cc1 (some centres unmarked) [mPEG5-O-Darunavir] |  |  | >400 | 0.448 ± 0.0195 | 37.0 ± 0.00425 | 37.5 | >200 | 4.93 ± 0.000253 | 281 |  |  |  |  |  | 
COCCOCCOCCOCCOCCOCCOCCNc1ccc(S(=O)(=O)N(CC(C)C)CC(O)[C@H](Cc2ccccc2)NC(=O)O[C@H]2CO[C@H]3OCC[C@H]32)cc1 (some centres unmarked) [mPEG7-N-Darunavir] |  |  |  | 0.364 ± 0.0298 |  |  | >200 |  |  |  |  |  |  |  | CLint ± SEM (human hepatocytes; 3 uM, incubated up to one hour): 5.13 ± 0.611 μL/min/10^6 cells
COCCOC(=O)NC(C(=O)NC(Cc1ccccc1)C(O)CN(Cc1ccc(-c2ccccn2)cc1)NC(=O)C(NC(=O)OC)C(C)(C)C)C(C)(C)C (centres unmarked) [mono-mPEG1-Atazanavir] |  |  |  |  | 82.5 ± 0.0100 | 16.8 |  | 31.1 ± 0.000512 | 44.5 | 15.3 ± 0.00173 | 90.5 | 0.246 ± 0.0239 | 0.0666 ± 0.00662 | 0.0793 ± 0.00541 | PBMC TC50 ± SD (PBMCs): 135.9 µM
COCCOCCOCCOC(=O)NC(C(=O)NC(Cc1ccccc1)C(O)CN(Cc1ccc(-c2ccccn2)cc1)NC(=O)C(NC(=O)OC)C(C)(C)C)C(C)(C)C (centres unmarked) [mono-mPEG3-Atazanavir, {1-[N′-[2-Hydroxy-3-(2-{2-[2-(2-methoxy-ethoxy)-ethoxy]-ethoxycarbonylamino}-3,3-dimethyl-butyrylamino)-4-phenyl-butyl]-N′-(4-pyridin-2-yl-benzyl)-hydrazinocarbonyl]-2,2-dimethyl-propyl}-carbamic Acid Methyl Ester] | 0.217 ± 0.000495 | 88.3 | >400 |  |  |  |  |  |  |  |  |  |  |  | half-life [2]: 26.8 min; half-life (in vitro [3]): 7.42 min; microsomal CLint (in vitro [3]): 187 µL/min/mg; inhibition at 10 µM (hERG; 10 μM): 5.4 ± 0.6%; inhibition at 30 µM (hERG; 30 μM): 23.7 ± 3.7%; inhibition at 100 µM (hERG; 100 μM): 53.1 ± 2.6%; half-life (in vitro [4]): 26.8 min; microsomal CLint (in vitro [4]): 249 µL/min/mg; efflux ratio (in vitro [5]; Caco-2): 44; Papp A→B (in vitro [5]; Caco-2, A→B, ×10^−6): 0.53 ×10⁻⁶ cm/s
COCCOCCOCCOCCOCCOC(=O)NC(C(=O)NC(Cc1ccccc1)C(O)CN(Cc1ccc(-c2ccccn2)cc1)NC(=O)C(NC(=O)OC)C(C)(C)C)C(C)(C)C (centres unmarked) [mono-mPEG5-Atazanavir] |  | > 100 |  |  |  |  |  |  |  | 3.98 ± 0.000356 | 348 | 0.383 ± 0.359 | 0.217 ± 0.0103 | 0.307 ± 0.0493 | t½ [2]: 57.6 min; Clint (in vitro [3]): 93.0 μL/min/mg protein; t1/2 (in vitro [3]): 14.9 min; Mean % inhibition ± SEM (Block of hERG at 0.1 Hz) (hERG; 10 μM): 11.2 ± 1.4%; Mean % inhibition ± SEM (Block of hERG at 0.1 Hz) (hERG; 30 μM): 26.3 ± 2.9%; Mean % inhibition ± SEM (Block of hERG at 0.1 Hz) (hERG; 100 μM): 43.8 ± 3.9%; Clint (in vitro [4]): 175 μL/min/mg protein; t½ (in vitro [4]): 57.6 min
COCCOCCOCCOCCOCCOCCOCCOC(=O)NC(C(=O)NC(Cc1ccccc1)C(O)CN(Cc1ccc(-c2ccccn2)cc1)NC(=O)C(NC(=O)OC)C(C)(C)C)C(C)(C)C (centres unmarked) [mono-mPEG7-Atazanavir] |  |  |  |  |  |  |  |  |  |  |  | 0.570 ± 0.0439 | 0.174 ± 0.00791 | 0.255 ± 0.0778 | PBMC TC50 ± SD (PBMCs): 187.2 µM
